The structures appear in SMILES notation.

The values below come from US9730871B2, “Antiperspirant/deodorant cosmetic compositions” (Colgate-Palmolive Company, priority 2012, dated 2017).

The experiment deals with staphylococcus hemolyticus. In words: Growth of underarm bacteria on agar plates coated with stick formulation, colony count. The following applies: for Bacteria count: 37° C., 16 hours, 0% control count 172; for Effect on growth / colony formation of staphylococcus hemolyticus (in words): sticks with 5-15% lauric acid coated on agar. In kind it is cell-based. As to the method: Four simplified stick compositions, each comprising 20% stearyl alcohol gellant and 0%, 5%, 10% and 15% lauric acid, respectively, were prepared. Stearyl alcohol is not considered to be an antibacterial agent. The remainder of each stick consisted of C12-C15 alkyl benzoates, which are synthetic emollients with no antibacterial activity.
A thin layer of each formulation was coated onto an agar plate, by moving the stick across the surface of the plate. A solution of staphylococcus hemolyticus bacteria at 0.1 optical density as measured by UV spectroscopy was diluted by a factor of 40. […] of the bacterial solution was then applied to the agar plate. The plate was incubated at 37° C. for 16 hours. The number of colonies formed on each plate was then recorded.

Regarding `CCCCCCCCCCCC(=O)O` [Laurie acid, lauric acid], the “Effect on growth / colony formation of staphylococcus hemolyticus (in words)” value is listed as “inhibit the growth”. This compound returned a Bacteria count (5% lauric acid in stick with 20% stearyl alcohol and C12-C15 alkyl benzoates) of 120. Further, the Bacteria count (10% lauric acid in stick with 20% stearyl alcohol and C12-C15 alkyl benzoates) stood at 102. This compound gave a Bacteria count (15% lauric acid in stick with 20% stearyl alcohol and C12-C15 alkyl benzoates) of 49. For the setting “listed as lauric acid”, the “Effect on growth / colony formation of staphylococcus hemolyticus (in words)” value is on record as “reduction on the number of bacterial colonies formed”.
